According to US20100189813A1, “Cidal formulations and methods of use” (priority 2006, published 2010):

Assays:
Anopheles mosquitoes = experiment: Anopheles mosquito larvae survivorship on exposure to copper; type: in vivo
Text: A solution in water of copper sulphate pentahydrate at 5 weight percent was used to treat Anopheles mosquitoes. The mosquitoes were wild caught and they were not separated by larval stage so there is some variability in the response to the test. The data is based upon 1000 larvae per treatment. Amounts of copper were used at 0.37 ppm, 0.88 ppm, 1.47 ppm, and 8.4 ppm. […] The Y-axis is the percentage of survivorship and the X-axis is the number of days of exposure.
The tests were repeated wherein a copper compound in inert carrier was treated with a detergent as an additive to determine if the additive increased the efficacy of the copper. […] The first control is FIG. 2, Stage 1 larvae, the duplicate control, Stage 1 larvae, is FIG. 3 wherein, in both Figures, the Y-axis is the percentage of survivorship and the X-axis is the number of days of exposure.
Kathon was added at 0.02 weight percent. […] The Y-axis is the percentage of survivorship and the X-axis is the number of days of exposure.
The copper was used at the 0.25 ppm level. […] The Y-axis is the percentage of survivorship and the X-axis is the number of days of exposure.

aerial bacteria = experiment: Agar growth media plates left open to the atmosphere for 6 hours (disinfectant efficacy), bacteria; type: cell-based; settings: copper sulphate at 5%; plates open 6 hours
Experimental: (§1) 1. The Unformulated composition containing 5 weight percent of copper sulphate in an inert carrier was added directly to growth media, namely, Agar, in order to evaluate it's efficacy as a disinfectant. 2. The same solution was added to bacteria and its growth was monitored by optical density readings as a function of time. 3. The same solution alone or in combination with a detergent was added to bacteria or fungi and incubated for 10 minutes or 60 minutes and the incubation mix was plated on to agar growth media in order to estimate survival.
(§2) a. The Unformulated composition at different concentrations was added to live bacterial agar media and the agar plates were exposed to the atmosphere by keeping the Petri plates open to the atmosphere for 6 hours. By doing this it was expected to allow aerial bacteria to grow in the plates.
(§3) Control plates without the Unformulated composition contained confluent colonies of bacteria (infinite) and fungi.

fungi = experiment: Agar growth media plates left open to the atmosphere for 6 hours (disinfectant efficacy), fungi; type: cell-based; settings: copper sulphate at 5%; plates open 6 hours
Experimental: as §1, §2, §3

E. Coli bacteria = experiment: Incubation for 10 or 60 minutes, then plating on agar to estimate survival, bacteria; type: cell-based; settings: detergent alone
Experimental: Three different types of experiments were conducted in order to assess the efficacy of an inventive solution on E. Coli bacteria and fungi.
as §1
c. Bacteria with the Unformulated composition was incubated for 10 minutes or 60 minutes before plating them. […] Because of the closeness of the data points, the inventors herein would point out that the top line is the control, the next set of lines lower are constituted of 0.1, 0.2, 0.3, 0.4, 0.5 of ET and 1 ml Matrix, while the bottom set of lines are constituted of 2 ml Matrix, 3 ml Matrix, 3 ml Matrix, 4 ml Matrix, and 5 ml of Matrix.
4. The effect of adding detergents, that is, sodium dodecyl sulfate to the Unformulated composition.
The detergent alone allowed growth up to a concentration of 0.2%. […]

| Compound | survivorship (Anopheles mosquitoes; 0.37 ppm copper, wild caught larvae not separated by larval stage, 1000 larvae per treatment) [%] | no-effect dose (Anopheles mosquitoes; copper, first part of the experiment, no detergent) [ppm] | death of larvae (Anopheles mosquitoes; more than 0.8 ppm copper (0.88, 1.47, 8.4 ppm tested), by day 3, wild caught larvae) | bacterial growth on plates (aerial bacteria) | fungal growth on plates (fungi) | concentration at which bacterial growth was still allowed (E. Coli bacteria) [%] |
| --- | --- | --- | --- | --- | --- | --- |
| O.O.O.O.O.O=S(=O)([O-])[O-].[Cu+2] [copper sulphate pentahydrate] | ~100 | 0.37 | died by day 3 | allowed bacterial growth | allowed no fungal growth |  |
| CCCCCCCCCCCCOS(=O)(=O)[O-].[Na+] [sodium dodecyl sulfate] |  |  |  |  |  | ≤ 0.2 |
